Several values for one entry are separate records, joined by “and”; a condition that tells them apart may be missing. Identical values can stand only once. Blank lines part the entries; values can stand above or below the compound they belong to.
Tests used:
[1] = Human zinc insulin oral delivery in rats, blood glucose % change; format: in vivo, Sprague-Dawley rats; conditions: delivery agent compound dose 200 mg/kg, human zinc insulin dose 0.5 mg/kg
[2] = Human recombinant insulin oral delivery in rats, whole blood glucose; format: in vivo, Sprague-Dawley rats; conditions: oral (liquid dose), delivery agent compound dose 200 mg/kg, insulin dose 0.5 mg/kg
Protocol: (§1) Insulin (human recombinant) was obtained from ICN Biomedicals (Aurora, Ohio) as a bulk powder. To prepare stock solutions, insulin was dissolved in deionized water (pH˜6.5) to obtain a concentration of 15 mg/ml. Stock solutions were kept frozen at −20° C. in 1.0-ml aliquots until used. For dosing solutions, the delivery agent compound was dissolved in deionized water to obtain a final concentration of 200 mg/ml. The free acid form of delivery agent was converted to the sodium salt by adding one equivalent of sodium hydroxide. Solutions were vortexed, sonicated, and heated, and if necessary, additional sodium hydroxide was added in μl quantities to achieve uniform solubility. Solutions were adjusted to a pH of 3.5-8.5 by the addition of either hydrochloric acid or sodium hydroxide. Insulin stock (typically 66.7 μl) was then added to the delivery agent solution to obtain a final concentration of 0.5 mg/ml. After solubilization and drug addition, solutions were brought to final volume by the addition of deionized water.
(§2) Insulin was administered to male, Sprague-Dawley rats either alone or in combination with an Emisphere delivery agent by oral gavage (PO). Typically, rats were fasted for 18-24 hours prior to dosing. For dosing, a Rusch 8 French catheter was cut to 11 cm in length and adapted to fit a 1-ml syringe. The syringe was filled with dosing solution and the catheter was wiped dry of excess solution. The catheter was inserted into the rat mouth and fed down the esophagus (10.0 cm). The dosing solution was delivered by pressing the syringe plunger while holding the rat in an upright position.
In order to determine the pharmacodynamic response, a hand-held glucometer (OneTouch Ultra, LifeScan® (Johnson & Johnson, New Brunswick, N.J.)) was used to measure whole blood glucose after administration of insulin or insulin and delivery agent. Samples were collected either from the retroorbital sinus (see Sample collection and handling: Insulin) or from the tail artery (i.e. tail clip). For tail clipping, the tip of the tail was severed approximately 5 mm from the tip using a scalpel blade. After discarding the first drop of blood, a small sample (˜5-10 μl) was touched to the glucometer test strip (OneTouch Ultra, LifeScan) and a blood glucose reading was generated by the meter. For each subsequent sampling time point, the clot formed at the tip of the tail was broken up and a fresh sample was collected. Typically, samples were collected prior to dosing (time 0) and at 15, 30, 45, and 60 minutes after dosing.

[3] = Oral and intracolonic heparin delivery in rats, APTT; format: in vivo, Sprague-Dawley rats
Protocol: (§3) Oral gavage (PO) and/or intracolonic (IC) dosing solutions containing a delivery agent compound and heparin sodium USP in 25% aqueous propylene glycol were prepared. The sodium salt of the compound was used. Typically, delivery agent compound and heparin (about 166-182 IU/mg) were mixed by vortex as dry powders. This dry mixture was dissolved in 25% v/v aqueous propylene glycol, vortexed and placed in a sonicator (about 37° C.). The pH was adjusted to about 7 (6.5 to 8.5) with aqueous NaOH (2N). The dosing solution was sonicated to produce a clear solution. The final volume was adjusted to 3.0 mL. The final delivery agent compound dose, heparin dose and volume dose amounts are listed below in Table 6.
(§4) The typical dosing and sampling protocols were as follows. Male Sprague-Dawley rats weighing between 275-350 g were fasted for 24 hours and were anesthetized with ketamine hydrochloride (88 mg/kg) intramuscularly immediately prior to dosing. A dosing group of five rats was administered one of the dosing solutions. […] Solution was administered by pressing the syringe plunger. […] The dosing catheter was inserted into the colon through the anus until the tube was no longer visible. The dosing solution was injected slowly into the colon.
Citrated blood samples were collected by cardiac puncture following the administration of ketamine (88 mg/kg), typically at time—0.25, 0.5, 1.0 and 1.5 hours. Heparin activity was determined by utilizing the activated partial thromboplastin time (APTT) according to the method of Henry, J. B., Clinical Diagnosis and Management by Laboratory Methods, Philadelphia, Pa., W.B. Saunders (1979). Previous studied indicated baseline values of about 20 sec. Results from the five rats in each group were averaged for each time point. The maximum is reported below in Table 6.

[4] = Human recombinant insulin oral/intracolonic delivery in rats, serum insulin Cmax; format: in vivo, Sprague-Dawley rats
Protocol: as §1, §2
During blood sampling, rats were exposed briefly (˜10 sec) to carbon dioxide until prostrate, immediately prior to each sampling time point. For blood sampling, a 77-mm capillary tube was inserted into the retroorbital sinus. Typically, blood samples were collected prior to dosing (time 0) and at 15, 30, 45, and 60 minutes after dosing. Samples were collected into CAPIJECT® tubes (Terumo Corporation, Tokyo, Japan) containing a clot activator (red top, serum separator tubes). Samples were allowed to clot for ˜20 min at 4° C. After clotting, samples were centrifuged at 10,000 rpm for 4 minutes at 6° C. in order to separate the serum. Serum was collected into eppendorf tubes and frozen at −20° C. until assayed.

[5] = PYY[3-36] liquid oral delivery in rats, serum PYY by radioimmunoassay; parameters: species or system Sprague-Dawley rats; conditions: rat, in vivo
Protocol: Oral gavage (PO) dosing solutions of delivery agent compound and Peptide YY residues 3-36 (PYY[3-36]) (available from Bachem California Inc. of Torrance, Calif.) in deionized water were prepared as follows.
PYY [3-36] stock solution (80 mg/ml) was prepared with deionized water. Oral dosing compositions containing 200 mg/kg of delivery agent compound and 0.3 mg/kg of PYY in aqueous solution were prepared. A solution of the compound 23 is made with one equivalent to sodium hydroxide to convert the free acid delivery agent to its sodium salt.
Male Sprague-Dawley rats weighing between 240-320 g were fasted up to a maximum 24 hours before the experiments and administered ketamine (44 mg/kg) and thorazine (1.5 mg/kg) by intramuscular injection before the test article administration. Afterwards, the anesthetized animals were administered the test article by oral gavage.
Blood samples were collected serially from the tail artery, or by cardiac puncture, typically at time=0, 15, 30, 45, 60 and 90 minutes. Serum PYY concentrations were quantified using a PYY[3-36] radioimmunoassay (Catalog #RK-059-02 from Phoenix Pharmaceuticals, Inc., Belmont, Calif.). Results from the animals in each group were averaged for each time point. The maximum of these averages (i.e., the mean peak serum PYY[3-36] concentration ±standard deviation (SD)) is reported below in Table 2.

[6] = Intracolonic heparin delivery in rats, antifactor Xa; format: in vivo, Sprague-Dawley rats; conditions: IC, volume 1 ml/kg, heparin dose 25 mg/kg
Protocol: as §3, §4

[7] = IC, volume 1 ml/kg, compound dose 50 mg/kg, heparin dose 25 mg/kg
[8] = oral (liquid dose), delivery agent compound dose 100 mg/kg, insulin dose 1 mg/kg

Compound: Cc1cc(C(=O)O)cc(C)c1OCc1ccccc1 [Compound 154]
Glucose (% control) [1]: −7.9%

Compound: O=C(O)Cc1ccccc1OCc1ccccc1 [Compound 152]
Glucose (% control) [1]: −29.3%

Compound: CN(C(=O)CCCCCC(=O)O)c1ccccc1 [Compound 27]
Maximum % drop in glucose from control ± SD [2]: −25.40 ± 30.61%

melting point: 127 to 128 °C
Compound: O=C(O)CCCCOc1ccc(OCc2ccccc2)cc1 [Compound 178, 5-(4-Benzyloxy-phenoxy)-pentanoic acid]

melting point: 141 to 142 °C
Compound: COc1ccc(C(=O)CCCC(=O)O)cc1 [Compound 116, 5-(4-Methoxy-phenyl)-5-oxo-pentanoic acid]

melting point: 67 to 70 °C
Cmax ([4]; oral (liquid dose), delivery agent compound dose 200 mg/kg, insulin dose 0.5 mg/kg): Cmax = 74 ± 7.5 μIU/mL
Compound: O=C(O)CCCCCOc1ccccc1C(=O)c1ccccc1O [Compound 160, 6-(2-(2-Hydroxybenzoyl)phenoxy)hexanoic acid]
Mean Peak APTT (sec) ± SD [3, 7]: 131 ± 154 s

Compound: CN(C(=O)CCC(=O)O)c1ccc(Cl)cc1 [Compound 29]
Maximum % drop in glucose from control ± SD [2]: −29.25 ± 6.97%

Cmax [4, 8]: Cmax = 118.16 ± 72.75 μIU/mL
Compound: CC(CC(=O)O)NC(=O)c1cc(Cl)cc(Cl)c1O (centres unmarked) [Compound 142, 3-(3,5-Dichloro-2-hydroxy-benzoylamino)-butyric acid]

Cmax [4, 8]: Cmax = 204.05 ± 60.88 μIU/mL
Compound: CC(CC(=O)O)NC(=O)c1cc(Br)cc(Br)c1O (centres unmarked) [Compound 141, 3-(3,5-Dibromo-2-hydroxy-benzoylamino)-butyric acid]
Mean Peak APTT (sec) ± SD [3, 7]: 52.40 ± 21.54 s

Cmax [4, 8]: Cmax = 81.16 ± 114.98 μIU/mL
Compound: CC(CC(=O)O)NC(=O)c1ccccc1O (centres unmarked) [Compound 140, 3-(2-Hydroxy-benzoylamino)-butyric acid]
Mean Peak APTT (sec) ± SD [3, 7]: 23.49 ± 6.12 s

Compound: COc1ccc(C(=O)O)cc1OCc1ccccc1 [Compound 153]
Glucose (% control) [1]: −7.1%

Compound: COc1ccc(OCCCC(=O)O)c(C(=O)c2ccccc2O)c1 [Compound 165]
Maximum % drop in glucose from control ± SD [2]: −33.0%

melting point: 62 to 63 °C
Compound: O=C(O)CCCCCCCCCCOc1ccccc1OCc1ccccc1 [Compound 177, 11-(2-Benzyloxyphenoxy)undecanoic acid]

Compound: PYY[3-36]: Peptide YY residues 3-36, available from Bachem California Inc.; the active agent, dosed alone
PYY[3-36] detected in blood [5]: No significant PYY[3-36] was detected

Compound: CCN(C(=O)CC(C)CC(=O)O)c1ccccc1 (centres unmarked) [Compound 26]
Maximum % drop in glucose from control ± SD [2]: −25.93 ± 14.86%

melting point: 62 to 63 °C
Compound: CC(C)N(C(=O)CCCCCC(=O)O)c1ccccc1 [Compound 23, 7-[isopropyl(phenyl)amino]-7-oxoheptanoic acid]

Compound: CC(CC(=O)O)NC(=O)c1cc(C(C)C)cc(C(C)C)c1O (centres unmarked) [Compound 151, 3-(2-hydroxy-3,5-diisopropyl-benzoylamino)-butyric acid]
antifactor Xa (mean peak ± SD) ([6]; compound dose 25 mg/kg): 3.39 ± 3.07
antifactor Xa (mean peak ± SD) ([6]; compound dose 50 mg/kg): 2.36 ± 1.27
Mean Peak APTT (sec) ± SD ([3]; PO, volume 3 ml/kg, compound dose 300 mg/kg, heparin dose 100 mg/kg): 252.09 ± 107.13 s

Compound: CC(CC(=O)O)CC(=O)N(c1ccccc1)C(C)C (centres unmarked) [Compound 25]
Maximum % drop in glucose from control ± SD [2]: −14.81 ± 12.99%

melting point: 110 to 112 °C
Compound: O=C(O)Cc1ccc(OCc2ccccc2)cc1 [Compound 158]

Compound: CC(C)N(C(=O)CCCCC(=O)O)c1ccccc1 [Compound 24]
Maximum % drop in glucose from control ± SD [2]: −14.73 ± 17.64%

Compound: Cc1ccc(OCCCC(=O)O)c(C(=O)c2ccccc2Cl)c1 [Compound 167, 4-(2-Chlorobenzoyl-4-methylphenoxy)butyric acid]
Maximum % drop in glucose from control ± SD [2]: −21.2% and −17.7% and −26.2% and −17.8% and −22.7%

Compound: CC(CC(=O)O)CC(=O)N(C)c1ccccc1 (centres unmarked) [Compound 28]
Maximum % drop in glucose from control ± SD [2]: −11.41 ± 18.92%

Cmax ([4]; intracolonic, delivery agent compound dose 50 mg/kg, insulin dose 0.1 mg/kg): Cmax = 15.03 ± 7.80 μIU/mL
Cmax [4, 8]: Cmax = 3.92 ± 5.62 μIU/mL
Compound: CC(CC(=O)O)NC(=O)c1ccc(Cl)cc1O (centres unmarked) [Compound 145, 3-(4-Chloro-2-hydroxy-benzoylamino)-butyric acid]
Mean Peak APTT (sec) ± SD [3, 7]: 134.42 ± 99.03 s

Compound: CC(CC(=O)O)NC(=O)c1cc(I)cc(I)c1O (centres unmarked) [Compound 143, 3-(2-Hydroxy-3,5-diiodo-benzoylamino)-butyric acid]
Mean Peak APTT (sec) ± SD [3, 7]: 114.69 ± 121.62 s

Compound: O=C(O)CCCOc1ccccc1C(=O)c1ccccc1O [Compound 166, 4-(2-(2-Hydroxybenzoyl)phenoxy)butyric acid]
Maximum % drop in glucose from control ± SD [2]: −5.7%

melting point: 85 to 87 °C
Compound: O=C(O)CCCCCCCCC(=O)c1ccccc1O [Compound 114, 10-(2-Hydroxy-phenyl)-10-oxo-decanoic acid]
Mean Peak APTT (sec) ± SD [3, 7]: 42.90 ± 8.70 s
